Counter-ions that a name gives are not always drawn. Like-named read-outs stand apart in the source and are kept apart here.
How the values were obtained:
[1] = tested on: IL-23 induced STAT3 in HEK-Blue™ IL-23 cells; assay: IL-23 induced STAT3 QUANTI-Blue reporter assay in HEK-Blue IL-23 cells; format: cell-based; settings: IL-23 0.1 ng/mL, SEAP levels, class symbols, read-out: IL23 reporter assay (IC50 nM)
Description: Biological Example 2. IL-23 Induced STAT3 QUANTI-Blue in HEK-Blue™ IL-23 Cells
HEK-Blue™ IL-23 cells were prepared at 2×10^5 cells/ml for adding 5000 cell/well and incubate plates containing compounds+cells for 1 hour at 37° C. Prepare IL-23 (treatment at final conc. 0.1 ng/mL) during incubation and add 2 ul per well of prepared cytokine in media to appropriate wells. The plate is incubated for overnight at 37° C. The next day, QUANTI-Blue solution is prepared. 18 ul of QUANTI-Blue solution per well is added into a new 384-well clear flat bottom plate, then add 2 ul of induced and treated HEK-Blue cell supernatant from overnight plate. Incubate the plate at 37° C. for 2 hours and determine SEAP levels.

[2] = biological target: T1, N-terminal His-tagged TYK2 pseudokinase domain (Homo sapiens, UniProt P29597); assay: TYK2 JH2 domain SPA binding assay; settings: displacement of H3 probe (20 nM), 30 min room temperature; class symbols
T1 construct: the N-terminal His-tagged TYK2 pseudokinase domain; His (N); purchased Pharmaron
Description: TYK2 JH2 Domain Binding Assay
After incubating at room temperature for 30 min, the inhibition was calculated by the displacement of [3H] 3 binding as determined by scintillation counting. Dose-response curves were generated to determine the concentration required to inhibit H3 probe binding by […] (IC50).

[3] = HEK-Blue IL-23, HEK-Blue IL-23 cells

T1 sequence (P29597 589-875 limits assumed): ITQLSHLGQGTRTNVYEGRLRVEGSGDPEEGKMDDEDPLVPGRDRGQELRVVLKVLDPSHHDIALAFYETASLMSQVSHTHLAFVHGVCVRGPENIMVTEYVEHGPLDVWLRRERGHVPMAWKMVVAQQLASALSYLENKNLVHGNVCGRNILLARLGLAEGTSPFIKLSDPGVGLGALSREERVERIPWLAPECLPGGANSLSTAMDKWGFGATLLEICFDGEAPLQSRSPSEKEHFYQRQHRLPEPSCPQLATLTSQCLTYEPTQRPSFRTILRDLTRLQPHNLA

SMILES | IC50 ([1]; HEK-Blue IL-23 cells) [nM] | IC50 [2] [nM] | IC50 [1, 3] [nM]
CNc1cc(Nc2cccn(C3CC4CCOC43)c2=O)nn2c(C(=O)N[C@@H]3C[C@@H]3F)cnc12 (single isomer, unassigned) [Compound 105c] | 10 to 100 | 10 to 100 | –
CNc1cc(Nc2cccn(C3CC4CCOC43)c2=O)nn2c(C(=O)N[C@@H]3C[C@@H]3F)cnc12 (single isomer, unassigned) [Compound 105d] | < 10 | 10 to 100 | –
CNc1cc(Nc2cccn(-c3ncccc3F)c2=O)nn2c(C(=O)N[C@@H]3C[C@H]4CCO[C@H]43)cnc12 [Compound 1, N-((1R,5S,7R)-2-oxabicyclo[3.2.0]heptan-7-yl)-6-((3′-fluoro-2-oxo-2H-[1,2′-bipyridin]-3-yl)amino)-8-(methylamino)imidazo[1,2-b]pyridazine-3-carboxamide] | – | 10 to 100 | < 10
[2H]C([2H])([2H])Nc1cc(Nc2cccn(-c3ncccc3F)c2=O)nn2c(C(=O)N[C@@H]3C[C@H]4CCO[C@H]43)cnc12 [Compound 5, N-((1R,5S,7R)-2-oxabicyclo[3.2.0]heptan-7-yl)-6-((3′-fluoro-2-oxo-2H-[1,2′-bipyridin]-3-yl)amino)-8-((methyl-d3)amino)imidazo[1,2-b]pyridazine-3-carboxamide] | – | 10 to 100 | < 10
CNc1cc(Nc2cccc3c2OCCC3)nn2c(C(=O)NC3CCn4ccnc43)cnc12 (stereo not drawn) [Compound 6, 6-(chroman-8-ylamino)-N-(6,7-dihydro-5H-pyrrolo[1,2-a]imidazol-7-yl)-8-(methylamino)imidazo[1,2-b]pyridazine-3-carboxamide] | – | < 10 | < 10
CNc1cc(Nc2cccn(-c3ccccn3)c2=O)nn2c(C(=O)NC3CCc4conc43)cnc12 (stereo not drawn) [Compound 7, N-(5,6-dihydro-4H-cyclopenta[c]isoxazol-6-yl)-8-(methylamino)-6-((2-oxo-2H-[1,2′-bipyridin]-3-yl)amino)imidazo[1,2-b]pyridazine-3-carboxamide] | – | < 10 | < 10
[2H]c1onc2c1CCC2NC(=O)c1cnc2c(NC)cc(Nc3cccn(-c4ccccn4)c3=O)nn12 (stereo not drawn) [Compound 8, N-(5,6-dihydro-4H-cyclopenta[c]isoxazol-6-yl-3-d)-8-(methylamino)-6-((2-oxo-2H-[1,2′-bipyridin]-3-yl)amino)imidazo[1,2-b]pyridazine-3-carboxamide] | – | < 10 | < 10
CNc1cc(Nc2cccn(-c3ccccn3)c2=O)nn2c(C(=O)NC3CCc4scnc43)cnc12 (stereo not drawn) [Compound 9, N-(5,6-dihydro-4H-cyclopenta[d]thiazol-4-yl)-8-(methylamino)-6-((2-oxo-2H-[1,2′-bipyridin]-3-yl)amino)imidazo[1,2-b]pyridazine-3-carboxamide] | – | < 10 | < 10
CNc1cc(Nc2cccn(C3CCC4(CC3)COC4)c2=O)nn2c(C(=O)N[C@@H]3C[C@H]4CCO[C@H]43)cnc12 [Compound 12, N-((1R,5S,7R)-2-oxabicyclo[3.2.0]heptan-7-yl)-8-(methylamino)-6-((2-oxo-1-(2-oxaspiro[3.5]nonan-7-yl)-1,2-dihydropyridin-3-yl)amino)imidazo[1,2-b]pyridazine-3-carboxamide] | – | < 10 | < 10
CNc1cc(Nc2cccn(C3C[C@H]4CC[C@@H](C3)O4)c2=O)nn2c(C(=O)N[C@@H]3C[C@H]4CCO[C@H]43)cnc12 (stereo partly drawn) [Compound 13, 6-((1-(cis-8-oxabicyclo[3.2.1]octan-3-yl)-2-oxo-1,2-dihydropyridin-3-yl)amino)-N-((1R,5S,7R)-2-oxabicyclo[3.2.0]heptan-7-yl)-8-(methylamino)imidazo[1,2-b]pyridazine-3-carboxamide] | – | 10 to 100 | < 10
[2H]C([2H])([2H])Nc1cc(Nc2cccn([C@@H]3C[C@H]4CCO[C@H]43)c2=O)nn2c(C(=O)N[C@@H]3C[C@H]4CCO[C@H]43)cnc12 [Compound 14, 6-((1-((1R,5S,7R)-2-oxabicyclo[3.2.0]heptan-7-yl)-2-oxo-1,2-dihydropyridin-3-yl)amino)-N-((1R,5S,7R)-2-oxabicyclo[3.2.0]heptan-7-yl)-8-((methyl-d3)amino)imidazo[1,2-b]pyridazine-3-carboxamide] | – | < 10 | < 10
[2H]C([2H])([2H])O[C@H]1CC[C@@H](n2cccc(Nc3cc(NC)c4ncc(C(=O)N[C@@H]5C[C@@H]5F)n4n3)c2=O)CC1 [Compound 15, N-((1R,2S)-2-fluorocyclopropyl)-6-((1-((1s,4s)-4-(methoxy-d3)cyclohexyl)-2-oxo-1,2-dihydropyridin-3-yl)amino)-8-(methylamino)imidazo[1,2-b]pyridazine-3-carboxamide hydrochloride] | – | 10 to 100 | 10 to 100
CNc1cc(Nc2cccn([C@H]3CC[C@H](OC)CC3)c2=O)nn2c(C(=O)N[C@@H]3C[C@@H]3F)cnc12 [Compound 16, N-((1R,2S)-2-fluorocyclopropyl)-6-((1-((1r,4r)-4-methoxycyclohexyl)-2-oxo-1,2-dihydropyridin-3-yl)amino)-8-(methylamino)imidazo[1,2-b]pyridazine-3-carboxamide] | – | 10 to 100 | < 10
CNc1cc(Nc2cccn(-c3ccccn3)c2=O)nc2c(C(=O)NC3CCn4ncnc43)cnn12 (stereo not drawn) [Compound 17, N-(6,7-dihydro-5H-pyrrolo[1,2-b][1,2,4]triazol-7-yl)-7-(methylamino)-5-((2-oxo-2H-[1,2′-bipyridin]-3-yl)amino)pyrazolo[1,5-a]pyrimidine-3-carboxamide] | – | 10 to 100 | 10 to 100
CNc1cc(Nc2cccn(-c3ccccn3)c2=O)nc2c(C(=O)NC3CCn4ccnc43)cnn12 (stereo not drawn) [Compound 18, N-(6,7-dihydro-5H-pyrrolo[1,2-a]imidazol-7-yl)-7-(methylamino)-5-((2-oxo-2H-[1,2′-bipyridin]-3-yl)amino)pyrazolo[1,5-a]pyrimidine-3-carboxamide] | – | < 10 | < 10
[2H]C([2H])([2H])Nc1cc(Nc2cccn([C@H]3C[C@H](OC([2H])([2H])[2H])C3)c2=O)nc2c(C(=O)N[C@@H]3C[C@H]4CCO[C@H]43)cnn12 [Compound 19, N-((1R,5S,7R)-2-oxabicyclo[3.2.0]heptan-7-yl)-5-((1-((1r,3r)-3-(methoxy-d3)cyclobutyl)-2-oxo-1,2-dihydropyridin-3-yl)amino)-7-((methyl-d3)amino)pyrazolo[1,5-a]pyrimidine-3-carboxamide] | – | 10 to 100 | 10 to 100
CNc1cc(Nc2cccc3c2OCCC3)nn2c(C(=O)NCc3ncco3)cnc12 [Compound 20] | – | < 10 | < 10
CNc1cc(Nc2cccc3c2OCCC3)nn2c(C(=O)NCc3nccn3C)cnc12 [Compound 21] | – | 10 to 100 | < 10
CNc1cc(Nc2cccn(-c3ccccc3F)c2=O)nn2c(C(=O)N[C@@H]3C[C@H]4CCO[C@H]43)cnc12 [Compound 44] | – | 10 to 100 | < 10
CNc1cc(Nc2cccn(-c3ccccc3F)c2=O)nn2c(C(=O)N[C@H]3C[C@@H]4CCO[C@@H]43)cnc12 [Compound 45] | – | 100 to 1000 | ≥ 1000
CNc1cc(Nc2cccn(-c3ccccc3)c2=O)nn2c(C(=O)N[C@@H]3C[C@H]4CCO[C@H]43)cnc12 [Compound 46] | – | 10 to 100 | < 10
[2H]C([2H])([2H])Nc1cc(Nc2cccn(-c3ccn(C)n3)c2=O)nn2c(C(=O)N[C@@H]3C[C@H]4CCO[C@H]43)cnc12 [Compound 52] | – | < 10 | < 10
[2H]C([2H])([2H])Nc1cc(Nc2cccn(-c3ccn(C([2H])([2H])[2H])n3)c2=O)nn2c(C(=O)N[C@@H]3C[C@H]4CCO[C@H]43)cnc12 [Compound 53] | – | 10 to 100 | < 10
CNc1cc(Nc2cccn(-c3nn(C)cc3F)c2=O)nn2c(C(=O)N[C@@H]3C[C@H]4CCO[C@H]43)cnc12 [Compound 54] | – | 10 to 100 | < 10
CNc1cc(Nc2cccn(-c3cc(C)n(C)n3)c2=O)nn2c(C(=O)N[C@@H]3C[C@H]4CCO[C@H]43)cnc12 [Compound 55] | – | 10 to 100 | 10 to 100
[2H]C([2H])([2H])Nc1cc(Nc2cccn(-c3ccn(C)n3)c2=O)nn2c(C(=O)N[C@@H]3C[C@@H]3F)cnc12 [Compound 57] | – | 10 to 100 | 10 to 100
[2H]C([2H])([2H])n1ccc(-n2cccc(Nc3cc(NC)c4ncc(C(=O)N[C@@H]5C[C@@H]5F)n4n3)c2=O)n1 [Compound 58] | – | 10 to 100 | 10 to 100
[2H]C([2H])([2H])Nc1cc(Nc2cccn(-c3ccn(C([2H])([2H])[2H])n3)c2=O)nn2c(C(=O)N[C@@H]3C[C@@H]3F)cnc12 [Compound 59] | – | 10 to 100 | < 10
CNc1cc(Nc2cccn([C@H]3CC[C@H](OC)CC3)c2=O)nn2c(C(=O)N[C@@H]3C[C@H]4CCO[C@H]43)cnc12 [Compound 63] | – | < 10 | < 10
[2H]C([2H])([2H])Nc1cc(Nc2cccn([C@H]3CC[C@@H](OC([2H])([2H])[2H])CC3)c2=O)nn2c(C(=O)N[C@@H]3C[C@H]4CCO[C@H]43)cnc12 [Compound 64] | – | 10 to 100 | 10 to 100

— patent US20240335443A1, “IMIDAZOLOPYRIDAZINE OR PYRAZOLOPYRIMIDINE COMPOUNDS AND COMPOSITIONS” (Anrui Biomedical Technology (Guangzhou) Co., Ltd., priority 2021, published 2024)
